pEC50: −log10 of the molar value. Values joined by “and” are separate entries in the source; they are usually repeats but may differ in a detail not shown here. Identical values can stand only once.
What was measured:
[1] = molecular target: T1, HA-S170A CaSR mutant (ATD mutant) (Rattus norvegicus, UniProt P48442, S170A); assay: IP-One assay, HEK293T transiently transfected; type: cell-based
T1 construct: mGluR5 signal peptide (N); expressed in transfected cells; host or cells: HEK293T
T1 sequence (P48442 20-1079 S170A): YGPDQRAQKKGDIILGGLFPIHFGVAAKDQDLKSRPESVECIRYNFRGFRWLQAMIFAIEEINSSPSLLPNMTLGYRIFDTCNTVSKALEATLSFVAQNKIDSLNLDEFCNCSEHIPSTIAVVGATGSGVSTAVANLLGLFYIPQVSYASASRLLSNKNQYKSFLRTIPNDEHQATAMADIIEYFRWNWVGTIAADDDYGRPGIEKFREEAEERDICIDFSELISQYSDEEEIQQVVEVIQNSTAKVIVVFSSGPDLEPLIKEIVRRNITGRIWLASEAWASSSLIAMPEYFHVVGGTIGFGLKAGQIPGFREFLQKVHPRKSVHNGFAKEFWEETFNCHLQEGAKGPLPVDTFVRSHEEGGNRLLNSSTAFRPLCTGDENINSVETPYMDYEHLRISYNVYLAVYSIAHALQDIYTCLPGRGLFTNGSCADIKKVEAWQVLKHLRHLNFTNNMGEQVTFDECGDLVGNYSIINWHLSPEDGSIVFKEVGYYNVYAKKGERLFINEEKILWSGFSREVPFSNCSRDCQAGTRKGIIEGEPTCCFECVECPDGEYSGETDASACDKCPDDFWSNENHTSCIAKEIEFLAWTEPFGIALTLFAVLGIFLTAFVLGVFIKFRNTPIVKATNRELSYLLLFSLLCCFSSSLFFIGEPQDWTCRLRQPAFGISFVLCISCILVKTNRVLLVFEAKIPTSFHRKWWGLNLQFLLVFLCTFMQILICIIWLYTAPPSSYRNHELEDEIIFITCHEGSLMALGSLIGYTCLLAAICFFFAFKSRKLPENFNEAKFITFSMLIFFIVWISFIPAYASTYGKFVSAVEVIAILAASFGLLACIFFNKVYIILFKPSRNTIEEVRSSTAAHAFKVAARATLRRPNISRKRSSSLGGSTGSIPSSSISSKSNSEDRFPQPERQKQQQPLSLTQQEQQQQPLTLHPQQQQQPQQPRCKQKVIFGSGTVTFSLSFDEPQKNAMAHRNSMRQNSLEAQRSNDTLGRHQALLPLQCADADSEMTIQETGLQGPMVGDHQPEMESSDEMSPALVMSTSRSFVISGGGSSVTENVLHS
Protocol: (§1) Human embryonic kidney (HEK) 293T cells were cultured in DMEM supplemented with 10% dFBS and 1% P/S at 37 °C and 5% CO2. 48 h prior to assay, transient transfection was performed using Lipofectamine 2000 as the transfection reagent. White opaque 96-well culture plates (PerkinElmer, Waltham, MA, USA) were used for the ELISA and the TR-FRET dimerization assay, while clear tissue culture treated 96-well plates (Corning, Corning, NY, USA) were used for the IP-One assay. Both plate types were coated with poly-D-lysine before addition of cells and transfection mix. 0.25 μl/well of Lipofectamine 2000 were diluted in 25 μl/well of Opti-MEM and incubated at room temperature (RT) for 5 min. 0.03 μg/well of DNA was diluted in 25 μl/well of Opti-MEM, and subsequently mixed with the Lipofectamine 2000 dilution and incubated 20 min at RT before addition to the plates. Cell suspensions of 170.000 HEK293T cells/mL were prepared in complete growth medium and 100 μl/well (17.000 cells/well) was added to the plates, which were incubated for 48 h at 37 °C and 5% CO2 before performing assays.
Functional activity was measured using the IP-One assay, which is an IP1 accumulation assay. For agonist testing, ligands were prepared in final concentrations in ligand buffer (HBSS, 20 mM HEPES, pH 7.4 supplemented with 20 mM LiCl). Cells were washed once with 100 μl/well of assay buffer (HBSS, 20 mM HEPES, pH 7.4) and 50 μl/well of agonist solution was added after which plates were incubated at 37 °C for 30 min. Subsequently, ligand solutions were removed and cells were washed with 100 μl/well of assay buffer. Cell lysis was performed by addition of 30 μl/well of IP-One Conjugate & Lysis Buffer (Cisbio Bioassays, Codolet, France) and plates were incubated at RT for 30 min. Afterwards, 30 μl/well of assay buffer was added to dilute the cell lysate. 10 μl/well of cell lysate was transferred from the 96-well plate to a 384-well Optiplate and 10 μl/well of detection solution (Assay buffer + 2.5% of anti-IP1 antibody cryptate Terbium conjugate + 2.5% IP1-d2 conjugate (Cisbio Bioassays, Codolet, France)) was also added. The 384-well plate was incubated for 1 h at RT in dark before being measured on an EnVision plate reader (PerkinElmer, Waltham, MA, USA). Upon excitation at 340 nm, emission at 615 nm and 665 nm was measured, and the FRET ratio (665 nm/615 nm) was converted to IP1 concentrations by interpolating values from an IP1 standard curve generated from a provided IP1 calibrator (Cisbio Bioassays, Codolet, France). When testing allosteric modulators, cells were pre-incubated for 30 min at 37 °C with 50 μl/well of ligand buffer supplemented with allosteric modulator and a final concentration of 1% DMSO. Afterwards, the buffer solution was removed and 50 μl/well of agonist solution in ligand buffer supplemented with allosteric modulator and a final concentration of 1% DMSO was added. Plates were incubated for 30 min at 37 °C followed by one wash in 100 μl/well of assay buffer. Cell lysis and detection was performed as described above.

myc-CaSR-F801A = molecular target: T2, myc-CaSR-F801A (Rattus norvegicus, UniProt P48442, F801A); assay: IP-One assay, co-expression with pEGFPN1 in HEK293T; type: cell-based; conditions: concentrations up to 45 mM Ca^2+
T2 construct: mGluR5 signal peptide (N); expressed in transfected cells; host or cells: HEK293T
Protocol: as §1, with “Cell suspensions of 170.000 HEK293T cells/mL were prepared in complete growth medium and 100 μl/well (17.000 cells/well) was added to the plates, which were incubated for 48 h at 37 °C and 5% CO2 before performing assays.” left out
Functional activity was measured using the IP-One assay, which is an IP1 accumulation assay. […] The 384-well plate was incubated for 1 h at RT in dark before being measured on an EnVision plate reader (PerkinElmer, Waltham, MA, USA). Upon excitation at 340 nm, emission at 615 nm and 665 nm was measured, and the FRET ratio (665 nm/615 nm) was converted to IP1 concentrations by interpolating values from an IP1 standard curve generated from a provided IP1 calibrator (Cisbio Bioassays, Codolet, France). […]

T2 sequence (P48442 20-1079 F801A): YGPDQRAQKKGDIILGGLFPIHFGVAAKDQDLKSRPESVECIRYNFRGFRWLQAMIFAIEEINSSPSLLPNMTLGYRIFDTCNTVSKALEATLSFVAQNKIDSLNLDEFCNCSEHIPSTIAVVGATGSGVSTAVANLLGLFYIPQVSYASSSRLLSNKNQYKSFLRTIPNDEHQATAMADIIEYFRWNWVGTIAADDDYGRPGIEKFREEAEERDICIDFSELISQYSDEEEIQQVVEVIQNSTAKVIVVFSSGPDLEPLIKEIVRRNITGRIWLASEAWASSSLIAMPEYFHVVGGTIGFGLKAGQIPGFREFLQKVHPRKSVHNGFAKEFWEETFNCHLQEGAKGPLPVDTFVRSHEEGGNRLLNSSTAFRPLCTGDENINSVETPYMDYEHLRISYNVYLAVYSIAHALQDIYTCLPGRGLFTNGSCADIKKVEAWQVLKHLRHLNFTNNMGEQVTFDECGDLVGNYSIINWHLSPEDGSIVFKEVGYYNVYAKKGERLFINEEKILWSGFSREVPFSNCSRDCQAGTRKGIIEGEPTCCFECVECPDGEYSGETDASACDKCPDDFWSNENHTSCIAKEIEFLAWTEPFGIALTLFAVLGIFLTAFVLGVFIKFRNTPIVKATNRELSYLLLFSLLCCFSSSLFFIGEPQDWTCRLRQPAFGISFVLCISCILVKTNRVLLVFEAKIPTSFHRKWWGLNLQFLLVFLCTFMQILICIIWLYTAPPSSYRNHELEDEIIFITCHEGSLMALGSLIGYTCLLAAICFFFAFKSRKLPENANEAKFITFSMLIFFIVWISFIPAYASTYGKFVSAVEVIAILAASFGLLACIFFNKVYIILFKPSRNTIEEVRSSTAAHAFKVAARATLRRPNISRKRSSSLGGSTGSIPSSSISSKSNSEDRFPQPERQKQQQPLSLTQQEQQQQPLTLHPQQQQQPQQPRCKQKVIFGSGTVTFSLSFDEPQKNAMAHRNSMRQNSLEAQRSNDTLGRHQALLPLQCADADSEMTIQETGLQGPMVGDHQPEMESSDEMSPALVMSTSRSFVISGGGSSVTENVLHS

Compound | pEC50 ([1]; HA-S170A, Ca^2+ alone) | Max ± S.E.M. ([1]; HA-S170A, normalized to maximum response of WT CaSR, at highest tested Ca^2+ concentration) | functional response to Ca^2+ (myc-CaSR-F801A) | potentiation of Ca^2+-mediated response ([1]; S170A co-expressed with pEGFPN1, 23 mM Ca^2+, 0.05, 0.1 and 1 μM NPS R-568)
[Ca+2] [Ca^2+] | < 1.35 | 17% and 17 ± 0.7% | non-functional | –
COc1cccc([C@@H](C)NCCCc2ccccc2Cl)c1.Cl [NPS R-568, NPS R-568 hydrochloride] | – | – | – | concentration-dependent potentiation

Reference: article PMC5394417, “Investigating the molecular mechanism of positive and negative allosteric modulators in the calcium-sensing receptor dimer” (Scientific Reports, 2017)
